The values that follow come from patent publication US7727999B2, “Spiroazacyclic compounds as monoamine receptor modulators” (ACADIA Pharmaceuticals Inc., priority 2001, dated 2010).

Where a name gives a salt, the structure may show the parent alone.

In series [1] the test system is spontaneous locomotor activity. Briefly: Spontaneous locomotor activity in mice. The series is classed as in vivo. To be noted: at doses that attenuate MK-801 hyperactivity; compound administered alone. Here is the method:
Male Non-Swiss Albino mice (Harlan Sprague-Dawley) were housed (4 mice/cage) in rooms with temperature and humidity controlled and water and food (Harlan Teklad) freely available. Mice were kept on a 12-hr light:dark cycle. For locomotor experiments, plastic 20×20×30 cm activity cages were equipped with photocell beams (AccuScan Instruments). For hyperactivity experiments, mice were treated with 0.3 mg/kg dizocilpine i.p. 15 min before the session. Mice were treated with 69NLS75 s.c. 10 min before the session or p.o. 30 min before the session and placed into the activity cages. For spontaneous activity, 69NLS75 was administered alone. Locomotor data were collected during a 15 min session without habituation in a lit room. Each dose combination was tested in a separate group of animals (n=8). Distance traveled (cm) was calculated and averaged followed by ANOVA and post-hoc Dunnett's t-test comparisons.

For series [2], the system named is MK-801-induced hyperactivity in mice. Briefly: Attenuation of MK-801 (dizocilpine)-induced hyperactivity in mice. The series is classed as in vivo. To be noted: for MED (mg/kg) p.o.: mice treated with MK801, oral administration; for dose giving statistically significant decrease of MK-801-induced hyperactivity compared to vehicle control: 0.3 mg/kg dizocilpine i.p. Here is the method:
Male Non-Swiss Albino mice (Harlan Sprague-Dawley) were housed (4 mice/cage) in rooms with temperature and humidity controlled and water and food (Harlan Teklad) freely available. Mice were kept on a 12-hr light:dark cycle. For locomotor experiments, plastic 20×20×30 cm activity cages were equipped with photocell beams (AccuScan Instruments).
For hyperactivity experiments, mice were treated with 0.3 mg/kg dizocilpine i.p. 15 min before the session. Mice were treated with 69NLS75 s.c. 10 min before the session or p.o. 30 min before the session and placed into the activity cages. For spontaneous activity, 69NLS75 was administered alone. Locomotor data were collected during a 15 min session without habituation in a lit room. Each dose combination was tested in a separate group of animals (n=8). Distance traveled (cm) was calculated and averaged followed by ANOVA and post-hoc Dunnett's t-test comparisons.
The effect of various compounds on locomotor activity in mice treated with MK801 was observed as described above.
Animals received 0.1-30 mg/kg of the compound indicated via subcutaneous injection or oral administration. MED indicates the minimum effective dose at which a statistically significant reduction of locomotor activity (described above) was observed. MED=minimum effective dose in vivo.

The target in another series is T1, H1 (Homo sapiens, UniProt P35367).
T1 construct: expressed in transfected cells; host or cells: NIH3T3 cells, pSI vector
T1 sequence (P35367 whole entry): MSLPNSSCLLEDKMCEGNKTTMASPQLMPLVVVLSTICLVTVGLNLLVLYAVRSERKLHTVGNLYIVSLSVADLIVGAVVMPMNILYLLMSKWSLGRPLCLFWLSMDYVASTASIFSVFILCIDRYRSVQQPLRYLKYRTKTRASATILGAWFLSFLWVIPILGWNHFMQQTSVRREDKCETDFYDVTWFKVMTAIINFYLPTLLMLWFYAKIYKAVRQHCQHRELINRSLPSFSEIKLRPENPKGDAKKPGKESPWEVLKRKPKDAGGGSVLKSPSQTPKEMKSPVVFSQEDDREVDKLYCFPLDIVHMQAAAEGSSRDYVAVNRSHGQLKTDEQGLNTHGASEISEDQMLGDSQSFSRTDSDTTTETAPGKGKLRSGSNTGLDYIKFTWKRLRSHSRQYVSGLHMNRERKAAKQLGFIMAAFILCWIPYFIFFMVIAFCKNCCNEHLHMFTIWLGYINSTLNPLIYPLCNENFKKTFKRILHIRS
Briefly: R-SAT selectivity profiling, H1. The note with it: H1, antagonist assay; read-out: pEC50 or pIC50 (converted). The format is cell-based. The protocol: (§1) The functional receptor assay, Receptor Selection and Amplification Technology (R-SAT), was used (with minor modifications from that previously described U.S. Pat. No. 5,707,798) to screen compounds for efficacy at the 5-HT2A receptor. Briefly, NIH3T3 cells were grown in 96 well tissue culture plates to 70-80% confluence. Cells were transfected for 12-16 hours with plasmid DNAs using superfect (Qiagen Inc.) as per manufacture's protocols. R-SAT's were generally performed with 50 ng/well of receptor and 20 ng/well of Beta-galactosidase plasmid DNA-All receptor and G-protein constructs used were in the pSI mammalian expression vector (Promega Inc) as described in U.S. Pat. No. 5,707,798. The 5HT2A receptor gene was amplified by nested PCR from brain cDNA using the oligodeoxynucleotides based on the published sequence (see Saltzman et. al. Biochem. Biophys. Res. Comm. 181:1469-78 (1991)). Large-scale transfections, cells were transfected for 12-16 hours, then trypsinized and frozen in DMSO. […] Media was then removed from the plates and marker gene activity was measured by the addition of the beta-galactosidase substrate ONPG (in PBS with 5% NP-40). The resulting calorimetric reaction was measured in a spectrophotometric plate reader (Titertek Inc.) at […]. All data were analyzed using the computer program XLFit (IDBSm). […]

For another series, the target named is T2, 5HT 2C (Homo sapiens, UniProt P28335).
T2 construct: expressed in transfected cells; host or cells: NIH3T3 cells, pSI vector
T2 sequence (P28335 33-458): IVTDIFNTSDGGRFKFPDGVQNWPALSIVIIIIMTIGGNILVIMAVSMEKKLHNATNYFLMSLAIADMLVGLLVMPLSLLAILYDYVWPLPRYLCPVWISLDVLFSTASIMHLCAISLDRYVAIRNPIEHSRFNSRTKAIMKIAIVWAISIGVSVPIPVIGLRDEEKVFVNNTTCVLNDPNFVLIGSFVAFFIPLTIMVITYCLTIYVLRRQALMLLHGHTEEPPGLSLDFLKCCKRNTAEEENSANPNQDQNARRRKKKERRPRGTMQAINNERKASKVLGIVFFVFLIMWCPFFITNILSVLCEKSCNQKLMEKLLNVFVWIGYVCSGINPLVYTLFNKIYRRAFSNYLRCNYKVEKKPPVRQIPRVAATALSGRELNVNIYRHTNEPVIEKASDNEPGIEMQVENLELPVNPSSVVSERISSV
Briefly: R-SAT selectivity profiling, 5HT 2C. The series is classed as cell-based. The protocol:
as §1

In another series the target is T3, 5HT1A (Homo sapiens, UniProt P08908).
T3 construct: expressed in transfected cells; host or cells: NIH3T3 cells, pSI vector
T3 sequence (P08908 1-422): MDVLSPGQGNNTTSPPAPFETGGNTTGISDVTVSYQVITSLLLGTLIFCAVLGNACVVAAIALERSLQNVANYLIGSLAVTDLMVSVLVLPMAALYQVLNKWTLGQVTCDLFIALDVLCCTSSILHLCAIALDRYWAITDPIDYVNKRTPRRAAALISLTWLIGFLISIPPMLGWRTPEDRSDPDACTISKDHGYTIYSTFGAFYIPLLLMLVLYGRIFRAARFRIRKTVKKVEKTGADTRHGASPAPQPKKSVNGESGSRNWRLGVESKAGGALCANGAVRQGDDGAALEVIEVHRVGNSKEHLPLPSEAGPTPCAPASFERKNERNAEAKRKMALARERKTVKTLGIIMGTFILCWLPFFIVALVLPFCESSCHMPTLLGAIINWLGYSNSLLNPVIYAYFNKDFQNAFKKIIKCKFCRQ
In words: R-SAT selectivity profiling, 5HT1A. To be noted: antagonist assay, read-out: pEC50 or pIC50 (converted). The format is cell-based. Here is the method:
as §1

A further series has as its target T4, 5-HT2A receptor (Homo sapiens, UniProt P28223).
T4 construct: expressed in transfected cells; host or cells: NIH3T3 cells, pSI mammalian expression vector
Briefly: R-SAT functional receptor assay at the 5-HT2A receptor. The series is classed as cell-based. To be noted: for IC50: R-SAT, NIH3T3 cells, inverse agonism (repression of basal response), read-out: 5HT2A pIC50 (converted). The text has this: The EC50 for an agonist is intended to denote the concentration of a compound needed to achieve 50% of a maximal response seen in R-SAT. For inverse agonists, EC50 is intended to denote the concentration of a compound needed to achieve 50% inhibition of an R-SAT response from basal, no compound, levels.
The functional receptor assay, Receptor Selection and Amplification Technology (R-SAT), was used (with minor modifications from that previously described U.S. Pat. No. 5,707,798) to screen compounds for efficacy at the 5-HT2A receptor. Briefly, NIH3T3 cells were grown in 96 well tissue culture plates to 70-80% confluence. Cells were transfected for 12-16 hours with plasmid DNAs using superfect (Qiagen Inc.) as per manufacture's protocols. R-SAT's were generally performed with 50 ng/well of receptor and 20 ng/well of Beta-galactosidase plasmid DNA-All receptor and G-protein constructs used were in the pSI mammalian expression vector (Promega Inc) as described in U.S. Pat. No. 5,707,798. The 5HT2A receptor gene was amplified by nested PCR from brain cDNA using the oligodeoxynucleotides based on the published sequence (see Saltzman et. al. Biochem. Biophys. Res. Comm. 181:1469-78 (1991)). Large-scale transfections, cells were transfected for 12-16 hours, then trypsinized and frozen in DMSO. Frozen cells were later thawed, plated at 10,000-40,000 cells per well of a 96 well plate that contained drug. With both methods, cells were then grown in a humidified atmosphere with 5% ambient CO2 for five days. Media was then removed from the plates and marker gene activity was measured by the addition of the beta-galactosidase substrate ONPG (in PBS with 5% NP-40). The resulting […] reaction was measured in a spectrophotometric plate reader (Titertek Inc.) at […]. All data were analyzed using the computer program XLFit (IDBSm). Efficacy is the percent maximal repression compared to repression by a control compound (ritanserin in the case of 5HT2A). pIC50 is the negative of the log(IC50), where IC50 is the calculated concentration in Molar that produces 50% maximal repression.
The R-SAT assay (described above in example) was used to investigate the selectivity of 4-(4-Fluoro-benzyl)-3-(4-isobutoxy-benzyl)-8-methyl-1-oxa-3,8-diaza-spiro[4.5]decan-2-one.

In another series the target is T5, m3 (Homo sapiens, UniProt P20309).
T5 construct: expressed in transfected cells; host or cells: NIH3T3 cells, pSI vector
T5 sequence (P20309 whole entry): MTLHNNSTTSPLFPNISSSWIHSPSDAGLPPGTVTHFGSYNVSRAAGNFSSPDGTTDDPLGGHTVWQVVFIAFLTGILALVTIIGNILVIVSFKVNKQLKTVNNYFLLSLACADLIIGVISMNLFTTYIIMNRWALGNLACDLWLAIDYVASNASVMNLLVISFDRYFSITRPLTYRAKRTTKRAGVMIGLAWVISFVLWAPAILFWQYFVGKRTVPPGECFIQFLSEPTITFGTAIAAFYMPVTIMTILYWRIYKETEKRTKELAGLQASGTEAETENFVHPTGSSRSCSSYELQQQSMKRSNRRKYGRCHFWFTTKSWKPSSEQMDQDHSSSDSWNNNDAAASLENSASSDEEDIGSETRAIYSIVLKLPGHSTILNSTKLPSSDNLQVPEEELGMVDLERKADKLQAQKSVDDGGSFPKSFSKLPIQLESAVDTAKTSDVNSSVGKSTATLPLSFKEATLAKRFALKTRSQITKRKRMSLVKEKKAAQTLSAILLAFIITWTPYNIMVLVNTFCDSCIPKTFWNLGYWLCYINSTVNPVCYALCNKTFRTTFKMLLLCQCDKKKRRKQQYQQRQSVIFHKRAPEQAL
Briefly: R-SAT selectivity profiling, m3. The series is classed as cell-based. To be noted: m3, antagonist assay; read-out: pEC50 or pIC50 (converted). The protocol: as §1

For the next series, the target named is T6, alpha 2A (Homo sapiens, UniProt P08913).
T6 construct: expressed in transfected cells; host or cells: NIH3T3 cells, pSI vector
T6 sequence (P08913 1-465): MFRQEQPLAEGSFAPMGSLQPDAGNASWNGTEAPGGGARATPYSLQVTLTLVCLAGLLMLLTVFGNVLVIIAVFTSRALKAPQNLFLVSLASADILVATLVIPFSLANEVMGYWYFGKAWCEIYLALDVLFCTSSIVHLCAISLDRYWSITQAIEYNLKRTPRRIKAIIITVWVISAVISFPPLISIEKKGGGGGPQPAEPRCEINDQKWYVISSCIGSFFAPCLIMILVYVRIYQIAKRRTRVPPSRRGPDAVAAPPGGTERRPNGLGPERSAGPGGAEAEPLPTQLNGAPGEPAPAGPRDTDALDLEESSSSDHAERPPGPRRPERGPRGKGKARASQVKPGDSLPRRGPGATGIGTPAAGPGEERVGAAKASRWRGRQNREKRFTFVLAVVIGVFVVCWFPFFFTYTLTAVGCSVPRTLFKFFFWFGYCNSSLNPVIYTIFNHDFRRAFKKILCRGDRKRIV
Briefly: R-SAT selectivity profiling, alpha 2A. The format is cell-based. To be noted: antagonist assay, read-out: pEC50 or pIC50 (converted). The protocol: as §1

[3] abbreviates: minimum effective dose for statistically significant reduction of locomotor activity.
The mark [4] stands for this setting: efficacy: percent maximal repression compared to ritanserin.

T4 sequence (P28223 whole entry): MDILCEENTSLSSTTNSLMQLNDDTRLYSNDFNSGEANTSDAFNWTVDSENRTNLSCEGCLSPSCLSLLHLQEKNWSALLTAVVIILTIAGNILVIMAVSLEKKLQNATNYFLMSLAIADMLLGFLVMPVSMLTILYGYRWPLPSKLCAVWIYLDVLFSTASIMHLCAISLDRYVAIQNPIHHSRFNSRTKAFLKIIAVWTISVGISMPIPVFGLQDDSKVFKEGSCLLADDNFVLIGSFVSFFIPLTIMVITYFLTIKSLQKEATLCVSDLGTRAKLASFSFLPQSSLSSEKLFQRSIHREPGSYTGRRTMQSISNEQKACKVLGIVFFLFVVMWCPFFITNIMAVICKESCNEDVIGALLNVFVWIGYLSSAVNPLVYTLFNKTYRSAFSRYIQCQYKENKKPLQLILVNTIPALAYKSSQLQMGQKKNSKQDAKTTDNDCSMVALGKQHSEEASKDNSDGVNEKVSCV

For the compound `CC(C)COc1ccc(CN2C(=O)OC3(CCN(C)CC3)C2Cc2ccc(F)cc2)cc1.Cl` (racemic) [Compound 69NLS75, 4-(4-Fluorobenzyl)-3-(4-isobutoxybenzyl)-8-methyl-1-oxa-3,8-diaza-spiro[4.5]decan-2-one, hydrochloride], the “effect on spontaneous locomotor activity” value in series [1] is “no effect”. For the same compound, in series [2] (distance traveled, 15 min session), the “effect on MK-801-induced hyperactivity in mice” value is recorded as “dose-related decrease”. For the same compound, the “MED (mg/kg) p.o.” value in series [2] (setting [3]) stood at 3 mg/kg. For the same compound, the “MED (mg/kg) s.c.” value in series [2] (minimum effective dose for statistically significant reduction of locomotor activity, mice treated with MK801, subcutaneous injection) was determined as 3 mg/kg. Further, the “dose giving statistically significant decrease of MK-801-induced hyperactivity compared to vehicle control” value in series [2] (p.o. 30 min before session) and in series [2] (s.c. 10 min before session) was 3 mg/kg in each case. For the same compound, the IC50 at H1 is 200 nM; on 5HT 2C (5HT 2C, inverse agonist assay, read-out: pEC50 or pIC50 (converted)), 31.6 nM; at 5HT1A, 398 nM; on 5-HT2A receptor, 0.316 nM; at m3 it was 398 nM; on alpha 2A, 501 nM. The “efficacy in brackets (%)” value was determined as 77% on 5HT 2C and 94% on 5-HT2A receptor (5HT2A, inverse agonist assay). For the same compound, on 5-HT2A receptor (5HT2A, inverse agonist assay), the “pEC50 or pIC50” value is 9.5. Also, the Emax at 5-HT2A receptor (efficacy: percent maximal repression compared to ritanserin, read-out: 5HT2A % inhibition) is 94%.

Consider `CC(C)COc1ccc(CN2C(=O)OC3(CCN(C)CC3)[C@@H]2Cc2ccc(F)cc2)cc1` (single isomer, unassigned) [Compound 78NLS59, hydrochloride], for which the “enantiomer preference at the 5-HT2A receptor in vitro” value at 5-HT2A receptor ((S)- versus (R)-enantiomer, Table 1) is “eutomer”. For the same compound, the IC50 on 5-HT2A receptor is 0.251 nM. On 5-HT2A receptor (setting [4]), the 5HT2A % inhibition turned out to be 98%.

Take `CC(C)COc1ccc(CN2C(=O)OC3(CCN(C)CC3)[C@H]2Cc2ccc(F)cc2)cc1.Cl` (single isomer, unassigned) [Compound 78NLS62, hydrochloride]: on 5-HT2A receptor, the IC50 was 6.31 nM.

On to `CC(C)COc1ccc(CN2C(=O)OC3(CCN(C)CC3)[C@H]2Cc2ccc(F)cc2)cc1.Cl` (single isomer, unassigned) [Compound 78NLS62], for which, at 5-HT2A receptor (setting [4]), the 5HT2A % inhibition worked out at 89%.

`CN1CCC2(CC1)OC(=O)N(Cc1ccc(OCC3CC3)cc1)C2Cc1ccc(F)cc1.Cl` (centres unmarked) [Compound 69NLS52, 3-(4-Cyclopropylmethoxybenzyl)-4-(4-fluorobenzyl)-8-methyl-1-oxa-3,8-diaza-spiro[4.5]decan-2-one, hydrochloride]: the “MED (mg/kg) p.o.” value in series [2] (setting [3]) worked out at 10 mg/kg.

For `CC(C)COc1ccc(CN2C(=O)OC3(CCN(CCC4OCCO4)CC3)C2Cc2ccc(F)cc2)cc1.Cl` (centres unmarked) [Compound 69NLS79-II, 8-(2-[1,3]Dioxolan-2-yl-ethyl)-4-(4-fluorobenzyl)-3-(4-isobutoxybenzyl)-1-oxa-3,8-diaza-spiro[4.5]decan-2-one, hydrochloride], the “MED (mg/kg) p.o.” value in series [2] (setting [3]) turned out to be 3 mg/kg.
